Results taken from patent publication US12441691B2 (Cytokinetics, Inc., priority 2020, dated 2025).

System: rabbit skeletal myofibrils (fast skeletal myofibrils)
Test: Activation of fast skeletal myofibrils (PUMA assay, AC1.4)
Assay type: biochemical
Conditions: calcium at pCa25, AC1.4 = concentration at which the compound increased the enzymatic activity
In short: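 In 12 mM PIPES pH 6.8 with 2 mM MgCl2 and 1 mM DTT, Triton-washed rabbit skeletal myofibrils were run at the pCa25 calcium level. Myosin-made ADP was recycled through a PK/LDH coupled system; NADH loss read at 340 nm.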

Q: For CC[C@H](C)[C@H]1C(=O)Nc2ccccc2CN1C(=O)N(C)C1CCN(C)C1 (stereo partly drawn) [Compound 235, (3S)-3-((S)-sec-butyl)-N-methyl-N-(1-methylpyrrolidin-3-yl)-2-oxo-1,2,3,5-tetrahydro-4H-benzo[e][1,4]diazepine-4-carboxamide], which AC1.4 is on record?
A: The AC1.4 was 1.45 µM.

Q: How did the AC1.4 turn out when CC[C@H](C)[C@H]1C(=O)Nc2ccccc2[C@@H](C)N1C(N)=O [Compound 320, (3S,5R)-3-((S)-sec-butyl)-5-methyl-2-oxo-1,2,3,5-tetrahydro-4H-benzo[e][1,4]diazepine-4-carboxamide] was run?
A: Its AC1.4 is 1.25 µM.

Q: With CC[C@H](C)[C@H]1C(=O)Nc2cncc(F)c2CN1C(=O)COCc1ccccc1 [Compound 371, (S)-4-(2-(benzyloxy)acetyl)-3-((S)-sec-butyl)-6-fluoro-1,3,4,5-tetrahydro-2H-pyrido[3,4-e][1,4]diazepin-2-one] as the molecule, how does the AC1.4 read?
A: Its AC1.4 is 0.50 µM.

Q: With CC[C@H](C)[C@H]1C(=O)Nc2ccccc2CN1C(=O)NCc1ccccc1C(N)=O [Compound 286] as the molecule, how does the AC1.4 read?
A: Its AC1.4 is 0.30 µM.

Q: Which AC1.4 does the source give for CC[C@H](C)[C@H]1C(=O)Nc2ccccc2CN1C(=O)NCCS(N)(=O)=O [Compound 221, (S)-3-((S)-sec-butyl)-2-oxo-N-(2-sulfamoylethyl)-1,2,3,5-tetrahydro-4H-benzo[e][1,4]diazepine-4-carboxamide] here?
A: Its AC1.4 is 1.80 µM.

Q: CC[C@H](C)[C@H]1C(=O)Nc2ccccc2CN1C(=O)NCCN1CC[C@@H](O)C1 [Compound 222, (S)-3-((S)-sec-butyl)-N-(2-((R)-3-hydroxypyrrolidin-1-yl)ethyl)-2-oxo-1,2,3,5-tetrahydro-4H-benzo[e][1,4]diazepine-4-carboxamide] was tested. Which AC1.4 did it give?
A: The AC1.4 was 2.02 µM.

Q: Which AC1.4 does the source give for CC[C@H](C)[C@H]1C(=O)Nc2ccccc2CN1C(=O)c1cn(C)nn1 [Compound 189, (S)-3-((S)-sec-butyl)-4-(1-methyl-1H-1,2,3-triazole-4-carbonyl)-1,3,4,5-tetrahydro-2H-benzo[e][1,4]diazepin-2-one] here?
A: The AC1.4 was 0.10 µM.

Q: CC[C@H](C)[C@H]1C(=O)Nc2cncc(F)c2CN1C(=O)c1cnn(C)c1 [Compound 80, (S)-3-((S)-sec-Butyl)-6-fluoro-4-(1-methyl-1H-pyrazole-4-carbonyl)-1,3,4,5-tetrahydro-2H-pyrido[3,4-e][1,4]diazepin-2-one] was tested. Which AC1.4 did it give?
A: The AC1.4 was 0.47 µM.

Q: Which AC1.4 does the source give for CC(C)[C@H]1C(=O)Nc2ccccc2CN1C(=O)N1CC(O)C1 [Compound 332, (S)-4-(3-hydroxyazetidine-1-carbonyl)-3-isopropyl-1,3,4,5-tetrahydro-2H-benzo[e][1,4]diazepin-2-one] here?
A: The AC1.4 was 2.37 µM.

Q: For CC[C@H](C)[C@H]1C(=O)Nc2ccccc2CN1c1c(NCCO)c(=O)c1=O [Compound 132, 3-((S)-3-((S)-sec-butyl)-2-oxo-1,2,3,5-tetrahydro-4H-benzo[e][1,4]diazepin-4-yl)-4-((2-hydroxyethyl)amino)cyclobut-3-ene-1,2-dione], which AC1.4 is on record?
A: The AC1.4 was 0.07 µM.

Q: CC(C)[C@H]1C(=O)Nc2ccccc2CN1C(=O)N(C)C [Compound 325, (S)-3-isopropyl-N,N-dimethyl-2-oxo-1,2,3,5-tetrahydro-4H-benzo[e][1,4]diazepine-4-carboxamide] was tested. Which AC1.4 did it give?
A: The AC1.4 was 1.81 µM.

Q: How did the AC1.4 turn out when CC[C@H](C)[C@H]1C(=O)Nc2ccccc2CN1S(=O)(=O)NC [Compound 120, (S)-3-((S)-sec-butyl)-N-methyl-2-oxo-1,2,3,5-tetrahydro-4H-benzo[e][1,4]diazepine-4-sulfonamide] was run?
A: Its AC1.4 is 0.12 µM.

Q: CC[C@H](C)[C@H]1C(=O)Nc2ccccc2CN1C(=O)N1CC[C@H](C(N)=O)C1 [Compound 296, (S)-1-((S)-3-((S)-sec-butyl)-2-oxo-2,3,4,5-tetrahydro-1H-benzo[e][1,4]diazepine-4-carbonyl)pyrrolidine-3-carboxamide] was tested. Which AC1.4 did it give?
A: Its AC1.4 is 1.75 µM.

Q: For CC[C@H](C)[C@H]1C(=O)Nc2ccccc2CN1c1ncc(N)c(=O)[nH]1 [Compound 24, (S)-4-(5-Amino-4-hydroxypyrimidin-2-yl)-3-((S)-sec-butyl)-1,3,4,5-tetrahydro-2H-benzo[e][1,4]diazepin-2-one], which AC1.4 is on record?
A: Its AC1.4 is 0.08 µM.

Q: Which AC1.4 does the source give for CC[C@H](C)[C@H]1C(=O)Nc2ccccc2CN1c1ncc(N)c(OC)n1 [Compound 60, (S)-4-(5-Amino-4-methoxypyrimidin-2-yl)-3-((S)-sec-butyl)-1,3,4,5-tetrahydro-2H-benzo[e][1,4]diazepin-2-one] here?
A: Its AC1.4 is 0.07 µM.

Q: For CC[C@H](C)[C@H]1C(=O)Nc2ccccc2CN1C(=O)c1ccn[nH]1 [Compound 105, (S)-3-((S)-sec-butyl)-4-(1H-pyrazole-5-carbonyl)-1,3,4,5-tetrahydro-2H-benzo[e][1,4]diazepin-2-one], which AC1.4 is on record?
A: The AC1.4 was 0.10 µM.

Q: How did the AC1.4 turn out when CC[C@H](C)[C@H]1C(=O)Nc2ccccc2CN1C(=O)Nc1cn[nH]c1 [Compound 101, (S)-3-((S)-sec-butyl)-2-oxo-N-(1H-pyrzol-4-yl)-1,2,3,5-tetrahydro-4H-benzo[e][1,4]diazepine-4-carboxamide] was run?
A: Its AC1.4 is 0.05 µM.

Q: With CC[C@H](C)[C@H]1C(=O)Nc2cccc(F)c2CN1C(=O)N1CC(O)C1 [Compound 337, (S)-3-((S)-sec-butyl)-6-fluoro-4-(3-hydroxyazetidine-1-carbonyl)-1,3,4,5-tetrahydro-2H-benzo[e][1,4]diazepin-2-one] as the molecule, how does the AC1.4 read?
A: Its AC1.4 is 0.72 µM.

Q: Which AC1.4 does the source give for CC[C@H](C)[C@H]1C(=O)Nc2ccccc2CN1C(N)=O [Compound 5, (S)-3-((S)-sec-Butyl)-2-oxo-1,2,3,5-tetrahydro-4H-benzo[e][1,4]diazepine-4-carboxamide] here?
A: The AC1.4 was 0.08 µM.

Q: CC[C@H](C)[C@H]1C(=O)Nc2ccccc2CN1C(=O)c1ccc(C(N)=O)cc1 [Compound 288, 4-((S)-3-((S)-sec-butyl)-2-oxo-2,3,4,5-tetrahydro-1H-benzo[e][1,4]diazepine-4-carbonyl)benzamide] was tested. Which AC1.4 did it give?
A: Its AC1.4 is 0.16 µM.

Q: CC[C@H](C)[C@H]1C(=O)Nc2cncc(F)c2CN1C(=O)N1CC(O)C1 [Compound 370, (S)-3-((S)-sec-butyl)-6-fluoro-4-(3-hydroxyazetidine-1-carbonyl)-1,3,4,5-tetrahydro-2H-pyrido[3,4-e][1,4]diazepin-2-one] was tested. Which AC1.4 did it give?
A: The AC1.4 was 0.88 µM.

Q: CC[C@H](C)[C@H]1C(=O)Nc2ccccc2CN1C(=O)Nc1cncc(C(N)=O)c1 [Compound 298, (S)-3-((S)-sec-butyl)-N-(5-carbamoylpyridin-3-yl)-2-oxo-1,2,3,5-tetrahydro-4H-benzo[e][1,4]diazepine-4-carboxamide] was tested. Which AC1.4 did it give?
A: The AC1.4 was 0.07 µM.

Q: With CC[C@H](C)[C@H]1C(=O)Nc2cccc(F)c2CN1/C(N)=N\C#N [Compound 336, (S,Z)-3-((S)-sec-butyl)-N′-cyano-6-fluoro-2-oxo-1,2,3,5-tetrahydro-4H-benzo[e][1,4]diazepine-4-carboximidamide] as the molecule, how does the AC1.4 read?
A: The AC1.4 was 0.12 µM.

Q: CC[C@H](C)[C@H]1C(=O)Nc2ccccc2CN1c1nccs1 [Compound 35, (3S)-3-[(2S)-Butan-2-yl]-4-(1,3-thiazol-2-yl)-1,3,4,5-tetrahydro-2H-1,4-benzodiazepin-2-one] was tested. Which AC1.4 did it give?
A: The AC1.4 was 0.07 µM.

Q: With CC[C@H](C)[C@H]1C(=O)Nc2cncc(C)c2CN1C(N)=O [Compound 81, (S)-3-((S)-sec-butyl)-6-methyl-2-oxo-1,2,3,5-tetrahydro-4H-pyrido[3,4-e][1,4]diazepine-4-carboxamide] as the molecule, how does the AC1.4 read?
A: Its AC1.4 is 3.80 µM.
